Results: the NIST ThermoML archive (doi:10.1016/j.jct.2013.08.034)

Experiment: xn = mol fraction of the nth substance listed
Conditions: 101 kPa, Liquid; for mass density: Vibrating tube method; for electrical conductivity: Conductivity Meter Jenco 3107; for viscosity: Cone and plate viscometry

CC1COC(=O)O1 (centres undefined) [4-methyl-1,3-dioxolan-2-one] + CCCC[n+]1ccn(C)c1.O=S(=O)([N-]S(=O)(=O)C(F)(F)F)C(F)(F)F
Conditions	electrical conductivity [S/m]	mass density [kg/m3]	viscosity [mPa·s]
308.15 K, x2 = 0.7989	–	1410.26	–
308.15 K, x2 = 0.898	–	1418.04	–
313.15 K, x2 = 0	–	–	2.05
313.15 K, x2 = 0.0146	–	1194.33	–
313.15 K, x2 = 0.0296	–	1205.22	–
313.15 K, x2 = 0.0453	–	1215.97	–
313.15 K, x2 = 0.0502	1.14	–	–
313.15 K, x2 = 0.0616	–	1226.46	–
313.15 K, x2 = 0.0732	–	1233.52	–
313.15 K, x2 = 0.0997	–	1248.42	–
313.15 K, x2 = 0.1	–	–	3.21
313.15 K, x2 = 0.1004	1.44	–	–
313.15 K, x2 = 0.2001	1.66	–	–
313.15 K, x2 = 0.2002	–	–	4.59
313.15 K, x2 = 0.2004	–	1293.64	–
313.15 K, x2 = 0.3002	1.52	–	–
313.15 K, x2 = 0.3007	–	–	6.34
313.15 K, x2 = 0.3081	–	1328.25	–
313.15 K, x2 = 0.3998	–	–	8.29
313.15 K, x2 = 0.4004	–	1350.46	–
313.15 K, x2 = 0.4005	1.4	–	–
313.15 K, x2 = 0.5004	–	–	10.77
313.15 K, x2 = 0.5007	1.25	–	–
313.15 K, x2 = 0.5021	–	1369.47	–
313.15 K, x2 = 0.5839	–	1381.78	–
313.15 K, x2 = 0.6002	–	–	13.57
313.15 K, x2 = 0.6003	1.11	–	–
313.15 K, x2 = 0.6902	–	1394.71	–
313.15 K, x2 = 0.6979	–	–	16.55
313.15 K, x2 = 0.6989	0.971	–	–
313.15 K, x2 = 0.7989	–	1405.28	–
313.15 K, x2 = 0.8001	0.85	–	–
313.15 K, x2 = 0.8015	–	–	20.47
313.15 K, x2 = 0.8959	0.73	–	23.63
313.15 K, x2 = 0.898	–	1413.08	–
318.15 K, x2 = 0	–	–	1.9
318.15 K, x2 = 0.0146	–	1188.81	–
318.15 K, x2 = 0.0296	–	1199.72	–
318.15 K, x2 = 0.0453	–	1210.48	–
318.15 K, x2 = 0.0502	1.23	–	–
318.15 K, x2 = 0.0616	–	1220.94	–
318.15 K, x2 = 0.0732	–	1228.04	–
318.15 K, x2 = 0.0997	–	1243.05	–
318.15 K, x2 = 0.1	–	–	2.89
318.15 K, x2 = 0.1004	1.59	–	–
318.15 K, x2 = 0.2001	1.81	–	–
318.15 K, x2 = 0.2002	–	–	4.17
318.15 K, x2 = 0.2004	–	1288.34	–
318.15 K, x2 = 0.3002	1.68	–	–
318.15 K, x2 = 0.3007	–	–	5.68
318.15 K, x2 = 0.3081	–	1323.02	–
318.15 K, x2 = 0.3998	–	–	7.31
318.15 K, x2 = 0.4004	–	1345.37	–
318.15 K, x2 = 0.4005	1.57	–	–
318.15 K, x2 = 0.5004	–	–	9.37
318.15 K, x2 = 0.5007	1.41	–	–
318.15 K, x2 = 0.5021	–	1364.43	–
318.15 K, x2 = 0.5839	–	1376.72	–
318.15 K, x2 = 0.6002	–	–	11.75
318.15 K, x2 = 0.6003	1.26	–	–
318.15 K, x2 = 0.6902	–	1389.72	–
318.15 K, x2 = 0.6979	–	–	14.29
318.15 K, x2 = 0.6989	1.11	–	–
318.15 K, x2 = 0.7989	–	1400.29	–
318.15 K, x2 = 0.8001	0.961	–	–
318.15 K, x2 = 0.8015	–	–	17.5
318.15 K, x2 = 0.8959	0.828	–	20.04
318.15 K, x2 = 0.898	–	1408.1	–
323.15 K, x2 = 0	–	–	1.78
323.15 K, x2 = 0.0146	–	1183.28	–
323.15 K, x2 = 0.0296	–	1194.23	–
323.15 K, x2 = 0.0453	–	1204.99	–
323.15 K, x2 = 0.0502	1.32	–	–
323.15 K, x2 = 0.0616	–	1215.52	–
323.15 K, x2 = 0.0732	–	1222.56	–
323.15 K, x2 = 0.0997	–	1237.51	–
323.15 K, x2 = 0.1	–	–	2.68
323.15 K, x2 = 0.1004	1.74	–	–
323.15 K, x2 = 0.2001	1.97	–	–
323.15 K, x2 = 0.2002	–	–	3.81
323.15 K, x2 = 0.2004	–	1283	–
323.15 K, x2 = 0.3002	1.85	–	–
323.15 K, x2 = 0.3007	–	–	5.14
323.15 K, x2 = 0.3081	–	1317.8	–
323.15 K, x2 = 0.3998	–	–	6.58
323.15 K, x2 = 0.4004	–	1340.2	–
323.15 K, x2 = 0.4005	1.74	–	–
323.15 K, x2 = 0.5004	–	–	8.34
323.15 K, x2 = 0.5007	1.57	–	–
323.15 K, x2 = 0.5021	–	1359.32	–
323.15 K, x2 = 0.5839	–	1371.65	–
323.15 K, x2 = 0.6002	–	–	10.31
323.15 K, x2 = 0.6003	1.41	–	–
323.15 K, x2 = 0.6902	–	1384.62	–
323.15 K, x2 = 0.6979	–	–	12.41
323.15 K, x2 = 0.6989	1.25	–	–
323.15 K, x2 = 0.7989	–	1395.23	–
323.15 K, x2 = 0.8001	1.1	–	–
323.15 K, x2 = 0.8015	–	–	15.15
323.15 K, x2 = 0.8959	0.93	–	17.34
323.15 K, x2 = 0.898	–	1403.08	–
328.15 K, x2 = 0	–	–	1.63
328.15 K, x2 = 0.0502	1.41	–	–
328.15 K, x2 = 0.1	–	–	2.47
328.15 K, x2 = 0.1004	1.89	–	–
328.15 K, x2 = 0.2001	2.12	–	–
328.15 K, x2 = 0.2002	–	–	3.45
328.15 K, x2 = 0.3002	2.06	–	–
328.15 K, x2 = 0.3007	–	–	4.68
328.15 K, x2 = 0.3998	–	–	5.94
328.15 K, x2 = 0.4005	1.92	–	–
328.15 K, x2 = 0.5004	–	–	7.41
328.15 K, x2 = 0.5007	1.74	–	–
328.15 K, x2 = 0.6002	–	–	9.19
328.15 K, x2 = 0.6003	1.57	–	–
328.15 K, x2 = 0.6979	–	–	11
328.15 K, x2 = 0.6989	1.4	–	–
328.15 K, x2 = 0.8001	1.25	–	–
328.15 K, x2 = 0.8015	–	–	13.3
328.15 K, x2 = 0.8959	1.07	–	15.12
333.15 K, x2 = 0	–	–	1.54
333.15 K, x2 = 0.1	–	–	2.31
333.15 K, x2 = 0.2002	–	–	3.22
333.15 K, x2 = 0.3007	–	–	4.26
333.15 K, x2 = 0.3998	–	–	5.37
333.15 K, x2 = 0.5004	–	–	6.66
333.15 K, x2 = 0.6002	–	–	8.17
333.15 K, x2 = 0.6979	–	–	9.7
333.15 K, x2 = 0.8015	–	–	11.7
333.15 K, x2 = 0.8959	–	–	13.26
